Reference: patent US7569587B2, “Antibacterial mutilins” (Nabriva Therapeutics AG, priority 2000, dated 2009)

Test system: Staphylococcus
Assay: Systemic infections of mice (Handbook of animal models of infection)
Assay type: in vivo
Conditions: parenteral or oral administration, Probit analysis
Text: The active compounds of the present invention show e.g. activity in systemic infections of mice determined according to the Handbook of animal models of infection.
ED50=Effective dosage in mg/kg body weight per application by which 50% of the treated animals are protected from death; calculated by Probit analysis (n=8 animals/group).

Row | SMILES | ED50 (dosage by which 50% of the treated animals are protected from death)
1 | C=CC1(C)CC(OC(=O)CS[C@H]2CCCN(C(=O)[C@H](N)C(C)C)C2)C2(C)C(C)CCC3(CCC(=O)C32)C(C)C1O (stereo partly drawn) [Example 1] | ~7.0 mg/kg body weight
2 | C=CC1(C)CC(OC(=O)CSC2CCN(C(=O)[C@H](N)C(C)C)C2)C2(C)C(C)CCC3(CCC(=O)C32)C(C)C1O (stereo partly drawn) [Example 5, 14-O—[(N-(3-methyl-2(R)-amino-butyryl)-pyrrolidine-3-yl)-sulfanylacetyl]-mutilin] | about 11.0 mg/kg body weight
3 | C=CC1(C)CC(OC(=O)CSC2CCN(C(=O)[C@H](N)Cc3c[nH]cn3)C2)C2(C)C(C)CCC3(CCC(=O)C32)C(C)C1O (stereo partly drawn) [Example 6, 4-O—[(N—(R)-histidinyl-pyrrolidin-3-yl)sulfanylacetyl]mutilin] | about 11.0 mg/kg body weight
